Assay results taken from patent US20050261365A1, “Transthyretin stabilization” (The Scripps Research Institute, priority 2004, published 2005).
“Also recorded” adds a separate entry of the source.

Columns and labels:
[1] = target: T1, WT-TTR (Homo sapiens, UniProt P02766); assay: time course analysis of WT-TTR fibril formation inhibition; format: biochemical; details: for rate of TTR amyloidogenesis mediated by partial acidification relative to control: inhibitor 7.2 and 3.6 μM, WT-TTR 3.6 μM, pH 4.4, turbidity at 500 nm
T1 construct: made in house
Protocol: Time course analysis of WT-TTR fibril formation inhibition by compounds 25, 47, and 64. Compounds 25, 47, and 64 were dissolved in DMSO to provide 7.2 mM primary stock solutions (10× stocks), from which 5- and 10-fold DMSO dilutions yielded 1.44 mM (2×) and 0.72 mM (1×) secondary stock solutions, respectively. 495 μL of 0.4 mg/mL (7.2 μM) WT-TTR solution (10 mM sodium phosphate, 100 mM KCl, and 1 mM EDTA, pH 7.2), and 5 μL of either the 1.44 or 0.72 mM inhibitor secondary stock solutions were added to disposable UV cuvettes, vortexed briefly, then incubated for 30 min at 25° C. The pH was then adjusted to 4.4 with addition of 500 μL of acidic buffer (100 mM acetate, 100 mM KCl, 1 mM EDTA, pH 4.2), and the final 1 mL solutions were vortexed again and incubated in the dark at 37° C. without agitation. At 0, 4, 8, 12, 25, 49, 74, 100, 122, 145, and 169 h time points after acidification, the solutions were vortexed and the turbidity at 500 nm was measured. Control samples containing 5 μL of pure DMSO were prepared and analyzed as above for comparison. Small molecule and TTR control samples were prepared in groups of 10 to prevent disturbance of the cuvettes during incubation. Samples were discarded after their turbidities were measured.
FIG. 10 is a plot of the timecourse analysis of WT-TTR (3.6 μM) fibril formation mediated by partial acid denaturation in the absence (▴) and presence of 7.2 μM (⋄) and 3.6 μM (◯) inhibitors 25, 47, and 64, as measured by turbidity at 500 nm (see color scheme within Figure to differentiate inhibitors). It is hard to discern which compound is most efficacious in the black and white plot.

[2] = precipitation of small molecules under acid-mediated amyloidogenic conditions in the absence of TTR; format: physicochemical; details: 3.6 μM, pH 4.4, 37° C., 72 h
Protocol: (§1) TTR amyloid inhibition efficacy was probed using a stagnant fibril formation assay described previously, wherein partial denaturation was triggered by acidification (pH 4.4, 37° C.) (Colon, W.; Kelly, J. W. Biochemistry 1992, 31, 8654-8660). Briefly, a test compound (7.2 or 3.6 μM) is incubated with TTR (3.6 μM) for 30 min in pH 7 buffer. Amyloidogenesis is then initiated by lowering to pH 4.4, where maximal fibril formation is observed with WT-TTR after 72 h (37° C.). […] From experience we know that excellent inhibitors allow <10% fibril formation at a small molecule concentration of 7.2 μM and <40% fibril formation at a concentration equal to that of WT-TTR (3.6 μM) (Hammarstrom, P.; et al. Science 2003, 299, 713-716; Klabunde, T.; et al. Nature Struct. Biol. 2000, 7, 312-321; Razavi, H.; et al. Angew Chem 2003, 42, 2758-2761; Miroy, G. J.; et al. Proc. Natl. Acad. Sci. USA 1996, 93, 15051-15056; Peterson, S. A.; et al. Proc. Natl. Acad. Sci. USA 1998, 95, 12956-12960; Baures, P. W.; et al. Bioorg. Med. Chem. 1998, 6, 1389-1401; Baures, P. W.; et al. Bioorg. Med. Chem. 1999, 7, 1339-1347; Petrassi, H. M.; et al. J. Am. Chem. Soc. 2000, 122, 2178-2192; McCammon, M. G.; et al. Structure 2002, 10, 851-863; Oza, V. B.; et al. J. Med. Chem. 2002, 45, 321-332; Saccheftini, J. C.; et al. Nature Rev. Drug Disc. 2002, 1, 267-275; Green, N. S.; et al. J. Am. Chem. Soc. 2003, 125, 13404-13414; Adamski-Werner, S. L.; et al. J. Med. Chem. 2004, 47, 355-374; Miller Sean, R.; et al. Lab. Inv. 2004, 84, 545-552). […] Therefore, when both the ligand and TTR are at equal concentrations, a population of TTR•I, TTR•I2 and unliganded TTR is observed, dictated by the dissociation constants. It is now established by other studies that inhibitor occupancy of only one of the two TTR binding sites is sufficient to stabilize the entire tetramer against amyloidogenesis (Wiseman, R. L.; et al. J. Am. Chem. Soc. 2005, in press). This is further supported by the observation herein that twenty-six of these dibenzofurans are excellent TTR amyloidogenesis inhibitors (<40% fibril formation) at a concentration equal to that of TTR (3.6 μM each, FIG. 3).

[3] = target: T2, WT-TTR tetramer (Homo sapiens, UniProt P02766); assay: time course analysis of WT-TTR tetramer dissociation by linked monomer unfolding in urea; format: biochemical; details: inhibitor 7.2 and 3.6 μM, TTR 3.6 μM, far-UV CD
T2 construct: made in house
Excerpt: The ability of these inhibitors to impose kinetic stability on tetrameric TTR is best evaluated by assessing the rate of TTR tetramer dissociation (Hammarstrom, P.; et al. Science 2003, 299, 713-716; Hammarstrom, P.; et al. Proc. Natl. Acad. Sci. USA 2002, 99, 16427-16432). Under acidic conditions tetramer dissociation leads to amyloidogenesis, whereas in the presence of chaotropes (6M urea), tetramer dissociation leads to monomer unfolding. The influence of inhibitors 25, 47 and 64, representing the three structural classes of dibenzofuran-based inhibitors, on the rates of tetramer dissociation under acid- and urea-mediated denaturing conditions was probed. […] The rate of TTR tetramer dissociation in 6M urea is easily monitored by linking the slow quaternary structural changes to rapid tertiary structural changes that are easily monitored by spectroscopic methods (Hammarstrom, P.; et al. Proc. Natl. Acad. Sci. USA 2002, 99, 16427-16432).
Time course analysis of WT-TTR tetramer dissociation inhibition by compounds 25, 47, and 64 evaluated by linked-monomer unfolding in urea. Compounds 25, 47, and 64 were dissolved in DMSO to provide 10 mM primary stock solutions, from which 10-fold EtOH dilutions yielded 1 mM secondary stock solutions. 200 μL of 1.0 mg/mL (18 μM) WT-TTR solution (50 mM sodium phosphate, 100 mM KCl, and 1 mM EDTA, pH 7.2), and either 7.2 or 3.6 μL (2× and 1×, respectively) of 1 mM inhibitor secondary stock solutions were added to 2 mL eppendorf tubes, vortexed briefly, and incubated for 15 min at 25° C. 100 μL of the TTR•inhibitor solutions were added to 900 μL of urea buffer (6.67 M urea, 50 mM sodium phosphate, 100 mM KCl, 1 mM EDTA, pH 7.2), and the final 1 mL solutions were vortexed again and incubated in the dark at 25° C. without agitation. At 0, 4, 11, 24, 49, 73, 97, 122, 146, and 170 h time points after mixing with urea, the circular dichroism spectra were measured between […], with scanning every 0.5 nm and averaging for 5 s. […] Control samples containing 7.2 μL of 10% DMSO in EtOH were prepared and analyzed as above for comparison. […] TTR tetramer dissociation is linked to the rapid (˜500,000× faster) monomer denaturation as measured through this β-sheet loss (Hammarstrom, P.; et al. Proc. Natl. Acad. Sci. USA 2002, 99, 16427-16432).
FIG. 11 is a plot of the timecourse analysis of WT-TTR (3.6 μM) tetramer dissociation (6.0 M urea) in the absence (▴) and presence of 7.2 μM (⋄) and 3.6 μM (◯) concentrations of inhibitors 25, 47, and 64 (see color scheme within Figure to differentiate inhibitors). Slow tetramer dissociation is not detectable by far-UV CD spectroscopy, but this process is linked to rapid (˜500,000× faster) monomer denaturation as monitored by loss of β-sheet content easily followed by circular dichroism spectroscopy. […]

[4] = target: T3, TTR in human blood plasma (Homo sapiens, UniProt P02766); assay: plasma TTR binding selectivity, antibody capture method; details: inhibitor 10.8 μM, 24 h, 37° C.
T3 construct: from tissue; host or cells: human blood plasma
Protocol: Inhibitor binding selectivity to TTR in human blood plasma was assessed using a previously established antibody capture method (Purkey, H. E.; et al. Proc. Natl. Acad. Sci. USA 2001, 98, 5566-5571). In this evaluation, inhibitors (10.8 μM, ˜2-3× the natural concentration of TTR) are incubated in human blood plasma for 24 h at 37° C. Quenched sepharose resin is then added to the plasma to remove any small molecules that would bind to the resin as opposed to TTR. TTR and any TTR-bound small molecule is then immunocaptured using a polyclonal TTR antibody covalently attached to sepharose resin. After washing the resin (5×10 min washes), the antibody-TTR complex is dissociated at high pH and analyzed by RP-HPLC. The relative stoichiometry between TTR and inhibitor is then calculated from their HPLC peak areas using standard curves.
(§2) The procedures used for bacterial expression of TTR (Lai, Z.; et al. Biochemistry 1996, 35, 6470-6482), the stagnant fibril formation assay (Colon, W.; Kelly, J. W. Biochemistry 1992, 31, 8654-8660; Lai, Z.; et al. Biochemistry 1996, 35, 6470-6482), the blood plasma binding selectivity assay (Purkey, H. E.; et al. Proc. Natl. Acad. Sci. USA 2001, 98, 5566-5571), and analytical ultracentrifugation (Lashuel, H. A.; et al. Biochemistry 1998, 37, 17851-17864) have all been described in detail previously.

[5] = target: T1, WT-TTR; assay: stagnant acid-mediated fibril formation assay (turbidity); format: biochemical; details: WT-TTR 3.6 μM; for inhibitor potency against fibril formation: inhibitor 3.6 μM, pH 4.4, 72 h
Protocol: as §1, §2

| Compound | precipitation in the absence of TTR [2] | inhibitor potency against fibril formation [5] | also measured |
| --- | --- | --- | --- |
| O=C(O)c1cccc2c1oc1c(C(=O)O)ccc(Oc3cc(Cl)cc(Cl)c3)c12 [Compound 47] | no measurable precipitation | – | order of fibrils formed at the end of the time course ([1]; after 169 hours, FIG. 10): shows the most fibrils formed; rate of TTR amyloidogenesis mediated by partial acidification relative to control [1]: dramatically slowed in a dose-dependent fashion; rate of TTR tetramer dissociation in 6M urea [3]: markedly slowed in a dose-dependent fashion |
| O=C(O)c1cccc2c1oc1c(C(=O)O)ccc(Oc3cccc(C(F)(F)F)c3)c12 [Compound 45] | no measurable precipitation | – | – |
| O=C(O)c1cccc(Nc2ccc(C(=O)O)c3oc4c(C(=O)O)cccc4c23)c1 [Compound 33] | – | amongst the most potent | binding selectivity to TTR in human blood plasma [4]: modest |
| O=C(O)c1cccc2c1oc1c(C(=O)O)ccc(-c3ccccc3F)c12 [Compound 67] | – | most potent | – |
| O=C(O)c1cccc2c1oc1c(C(=O)O)ccc(Nc3ccccc3F)c12 [Compound 36] | – | most potent | – |
| O=C(O)c1cccc(-c2ccc(C(=O)O)c3oc4c(C(=O)O)cccc4c23)c1 [Compound 69] | – | amongst the most potent | binding selectivity to TTR in human blood plasma [4]: modest |
| O=C(O)c1cccc2c1oc1c(C(=O)O)ccc(Nc3cc(C(F)(F)F)cc(C(F)(F)F)c3)c12 [Compound 31] | – | – | binding selectivity to TTR in human blood plasma [4]: all but two (31 and 35) exhibit dramatically increased binding selectivity |
| O=C(O)c1cccc2c1oc1c(C(=O)O)ccc(Nc3cc(Cl)cc(Cl)c3)c12 [Compound 30] | no measurable precipitation | – | – |
| O=C(O)c1cccc2c1oc1c(C(=O)O)ccc(-c3cc(Cl)cc(Cl)c3)c12 [Compound 63] | – | most potent | – |
| O=C(O)c1cccc2c1oc1c(C(=O)O)ccc(-c3cc(C(F)(F)F)cc(C(F)(F)F)c3)c12 [Compound 64] | – | – | rate of TTR amyloidogenesis mediated by partial acidification relative to control [1]: dramatically slowed in a dose-dependent fashion; rate of TTR tetramer dissociation in 6M urea [3]: markedly slowed in a dose-dependent fashion |
| O=C(O)c1cc(Nc2ccc(C(=O)O)c3oc4c(C(=O)O)cccc4c23)cc(C(=O)O)c1 [Compound 34] | – | all the inhibitors (except 34) display increased potency | inhibition of WT-TTR fibril formation ([5]; inhibitor 7.2 μM, pH 4.4, 37° C., 72 h): not as effective; also recorded: all but one (34) completely inhibit fibril formation |
| O=C(O)c1cccc2c1oc1c(C(=O)O)ccc(Nc3cccc(C(F)(F)F)c3)c12 [Compound 26] | no measurable precipitation | – | – |
| O=C(O)c1cccc2c1oc1c(C(=O)O)ccc(-c3cc(F)cc(F)c3)c12 [Compound 62] | no measurable precipitation | – | – |
| O=C(O)c1ccc(Nc2ccc(C(=O)O)c3oc4c(C(=O)O)cccc4c23)cc1 [Compound 35] | – | – | binding selectivity to TTR in human blood plasma [4]: all but two (31 and 35) exhibit dramatically increased binding selectivity |
